Laboratory results as given in article PMC4955970, “Stable, synthetic analogs of diadenosine tetraphosphate inhibit rat and human P2X3 receptors and inflammatory pain” (Molecular Pain, 2016).
“Also recorded” adds a separate entry of the source. Like-named read-outs stand apart in the source and are kept apart here.

Columns and labels:
Assay type in all cases: cell-based
rat P2X7 receptors = biological target: T1, rat P2X7 receptors (Rattus norvegicus, UniProt Q64663); assay: Whole-cell patch clamp on HEK293 cells expressing rat P2X7 receptors (ATP-induced currents); details: 1 µM; 10 µM ATP every 2 min
T1 construct: expressed in transfected cells; host or cells: HEK293
T1 sequence (Q64663 1-595): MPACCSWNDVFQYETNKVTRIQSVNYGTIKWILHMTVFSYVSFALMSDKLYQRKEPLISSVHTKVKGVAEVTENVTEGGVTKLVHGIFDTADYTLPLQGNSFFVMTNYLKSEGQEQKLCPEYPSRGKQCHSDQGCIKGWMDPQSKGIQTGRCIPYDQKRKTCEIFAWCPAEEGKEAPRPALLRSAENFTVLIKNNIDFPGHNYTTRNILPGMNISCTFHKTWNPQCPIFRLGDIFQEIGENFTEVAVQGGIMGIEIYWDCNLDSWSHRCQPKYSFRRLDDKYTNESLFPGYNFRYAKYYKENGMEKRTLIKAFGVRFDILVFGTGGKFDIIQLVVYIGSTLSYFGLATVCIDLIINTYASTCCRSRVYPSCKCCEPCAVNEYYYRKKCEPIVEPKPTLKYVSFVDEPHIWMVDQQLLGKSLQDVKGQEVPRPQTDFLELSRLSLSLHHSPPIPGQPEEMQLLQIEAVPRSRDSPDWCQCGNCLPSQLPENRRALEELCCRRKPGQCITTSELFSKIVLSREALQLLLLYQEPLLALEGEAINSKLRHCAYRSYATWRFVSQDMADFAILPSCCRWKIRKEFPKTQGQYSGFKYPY

[1] = biological target: T2, native P2X3Rs in TG neurons (Rattus norvegicus, UniProt P49654); assay: Whole-cell recording of α,β-meATP currents in cultured trigeminal ganglion (TG) neurons; details: read-out: inhibition of sustained residual component in TG neurons
T2 construct: endogenous in cells; host or cells: cultured rat trigeminal ganglion (TG) or dorsal root ganglion (DRG) neurons
T2 sequence (P49654 1-397): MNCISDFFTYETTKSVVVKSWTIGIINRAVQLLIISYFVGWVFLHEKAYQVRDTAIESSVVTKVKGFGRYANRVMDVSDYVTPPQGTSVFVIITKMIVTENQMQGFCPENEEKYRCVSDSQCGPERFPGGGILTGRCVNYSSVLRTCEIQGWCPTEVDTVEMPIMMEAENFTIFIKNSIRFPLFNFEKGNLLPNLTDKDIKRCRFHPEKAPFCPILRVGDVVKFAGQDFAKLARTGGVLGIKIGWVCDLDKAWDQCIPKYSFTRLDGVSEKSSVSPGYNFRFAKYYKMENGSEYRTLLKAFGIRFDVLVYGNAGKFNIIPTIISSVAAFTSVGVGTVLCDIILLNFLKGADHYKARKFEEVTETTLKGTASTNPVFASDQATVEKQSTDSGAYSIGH
T2 sequence (P49653 1-472 partner): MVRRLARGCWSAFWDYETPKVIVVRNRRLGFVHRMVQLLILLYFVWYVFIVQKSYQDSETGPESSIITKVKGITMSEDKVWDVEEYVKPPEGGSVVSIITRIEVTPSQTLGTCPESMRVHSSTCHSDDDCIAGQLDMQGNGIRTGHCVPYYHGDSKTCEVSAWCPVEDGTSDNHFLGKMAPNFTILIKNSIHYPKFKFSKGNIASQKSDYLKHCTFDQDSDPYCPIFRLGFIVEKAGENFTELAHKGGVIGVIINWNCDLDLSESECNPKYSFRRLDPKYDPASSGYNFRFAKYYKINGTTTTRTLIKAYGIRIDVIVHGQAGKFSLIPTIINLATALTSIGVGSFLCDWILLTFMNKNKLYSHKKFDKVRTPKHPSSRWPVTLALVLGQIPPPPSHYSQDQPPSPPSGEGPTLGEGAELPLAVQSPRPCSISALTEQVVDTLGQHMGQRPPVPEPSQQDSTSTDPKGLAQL
Description: (§1) Rat trigeminal, nodose, or dorsal root ganglion (TG, NG, and DRG, respectivley) neurons in culture were prepared as described previously.[46],[47] Neurons were plated on poly-L-lysine (0.2 mg/ml)-coated Petri dishes and cultured for one to two days under an atmosphere containing 5% CO2. Cells were used within two days of plating when they lacked processes. HEK293T cells were prepared as reported previously[32],[48] and transfected with rat or human full-length P2X3 cDNA subcloned into pIRES2-EGFP (Clontech, Mountain View, CA, USA).
(§2) TG, NG, DRG, or HEK cells were recorded in the whole-cell configuration while being continuously superfused (at 2 ml/min) with control solution containing (in mM): 152 NaCl, 5 KCl, 1 MgCl2, 2 CaCl2, 10 glucose, and 10 HEPES; pH was adjusted to 7.4 with NaOH and osmolarity was adjusted to 320 mOsM with glucose. […] Responses to selective P2X3R agonist α,β-methylene-ATP (α,β-meATP; resistant to ectoATPase hydrolysis, Sigma-Aldrich) were measured using an EPC-9 amplifier operated by HEKA Patch Master software (HEKA Electronik, Germany). Cells were voltage-clamped at −70 mV. In most cells, series resistance was compensated by 80%. To determine EC50 values, dose-response curves were constructed for α,β-meATP by administering different agonist doses same cells and fitting data to a logistic equation (Origin 8.0, Microcal, Northampton, MA). […]

[2] = biological target: T3, native P2X3Rs in TG neurons (Rattus norvegicus, UniProt P49654); assay: as above; details: read-out: inhibition of peak currents in TG neurons
T3 construct: endogenous in cells; host or cells: cultured rat trigeminal ganglion (TG) or dorsal root ganglion (DRG) neurons
T3 sequence (P49654 1-397): T2 sequence (P49654 1-397)
Description: as §1, §2

inhibition at 1 µM [1]: 15 ± 6%
inhibition at 1 µM [2]: 80.3 ± 4.4%
Compound: Nc1ncnc2c1ncn2[C@@H]1O[C@H](COP(=O)(O)OP(=O)(O)NP(=O)(O)OP(=O)(O)OC[C@H]2O[C@@H](n3cnc4c(N)ncnc43)[C@H](O)[C@@H]2O)[C@@H](O)[C@H]1O [AppNHppA, diadenosine 5′,5′′′-P^1,P^4-(β,γ-imido)tetraphosphate]
HAD or partial agonism effect on P2X7R-mediated currents (rat P2X7 receptors): did not produce any HAD or partial agonism effects; also recorded: does not inhibit
